Usually ED50 stands for the dose that gives a 50% effect, or the effect in half of the subjects. Broadly, the IC50 is the concentration needed to halve the response being measured.

Activity calls are given as the source filed them. The rule behind the calls is not given here.

In series [1] the test system is Rattus norvegicus. The series is described as follows: Antitussive activity in ip dosed Sprague-Dawley rat assessed as reduction of capsaicin-induced coughing for 3 mins administered 30 mins before capsaicin challenge relative to control. The class given is functional.
A short description of series [2]: Metabolic stability in human liver microsomes assessed as time course of compound elimination at 1 uM by HPLC. Conditions: read-out: Ke (converted). It is filed as ADME, Microsome.
Series [3] has as its system Rattus norvegicus. The series is described as follows: Antitussive activity in sc dosed Sprague-Dawley rat assessed as reduction of capsaicin-induced coughing for 3 mins administered 30 mins before capsaicin challenge relative to control. The class given is functional.
The subject of series [4] is Rattus norvegicus. The series is described as follows: Antitussive activity in po dosed rat assessed as reduction of coughing. It is filed as functional.
Series [5] concerns the target Kappa-type opioid receptor (Mus musculus) (UniProt P33534). As to the kind of experiment: Antagonist activity at kappa opioid receptor in ddy mouse vas deferens assessed as ratio of U-50,488H concentration that elicit equal response in absence and presence of compound. The class given is functional.
For series [6], the target named is Mu-type opioid receptor (Mus musculus) (UniProt P42866). As to the kind of experiment: Antagonist activity at mu opioid receptor in ddy mouse vas deferens assessed as ratio of morphine concentration that elicit equal response in absence and presence of compound. The class given is functional.
The species named for series [7] is Mus musculus. The series is described as follows: Selectivity for delta opioid receptor over mu opioid receptor in ddy mouse vas deferens. The class given is tissue-based.
The target in series [8] is Kappa-type opioid receptor (Mus musculus) (UniProt P33534). As to the kind of experiment: Antagonist activity at kappa opioid receptor in ddy mouse vas deferens assessed as inhibition of U-50,488H-induced electrically-stimulated contraction at 10 nM pretreated for 20 mins. It is filed as functional, tissue-based.
For series [9], the system named is Rattus norvegicus. The series is described as follows: Antitussive activity in po dosed Sprague-Dawley rat assessed as inhibition of capsaicin-induced coughing for 3 mins administered 60 mins before capsaicin challenge relative to control. It is filed as functional, organism-based.
For series [10], the target named is Delta-type opioid receptor (Mus musculus) (UniProt P32300). The series is described as follows: Antagonist activity at delta opioid receptor in ddy mouse vas deferens assessed as ratio of DPDPE concentration that elicit equal response in absence and presence of compound. The class given is functional.
Series [11] addresses Kappa-type opioid receptor (Mus musculus, UniProt P33534). As to the kind of experiment: Antagonist activity at kappa opioid receptor in ddy mouse vas deferens assessed as inhibition of U-50,488H-induced electrically-stimulated contraction. The class given is functional, tissue-based. Conditions: read-out: pA2 (converted).
In series [12] the target is Delta-type opioid receptor (Mus musculus) (UniProt P32300). The series is described as follows: Antagonist activity at delta opioid receptor in ddy mouse vas deferens assessed as inhibition of DPDPE-induced electrically-stimulated contraction at 10 nM pretreated for 20 mins. The class given is functional, tissue-based.
For series [13], the species on record is Mus musculus. The series is described as follows: Selectivity for delta opioid receptor over kappa opioid receptor in ddy mouse vas deferens. The class given is tissue-based.
Series [14] addresses Delta-type opioid receptor (Mus musculus, UniProt P32300). The series is described as follows: Antagonist activity at delta opioid receptor in ddy mouse vas deferens assessed as inhibition of DPDPE-induced electrically-stimulated contraction. The class given is functional, tissue-based.
The target of series [15] is Mu-type opioid receptor (Mus musculus) (UniProt P42866). As to the kind of experiment: Antagonist activity at mu opioid receptor in ddy mouse vas deferens assessed as inhibition of morphine-induced electrically-stimulated contraction at 10 nM pretreated for 20 mins. The class given is functional, tissue-based.

Delta-type opioid receptor, sequence (P32300 whole entry): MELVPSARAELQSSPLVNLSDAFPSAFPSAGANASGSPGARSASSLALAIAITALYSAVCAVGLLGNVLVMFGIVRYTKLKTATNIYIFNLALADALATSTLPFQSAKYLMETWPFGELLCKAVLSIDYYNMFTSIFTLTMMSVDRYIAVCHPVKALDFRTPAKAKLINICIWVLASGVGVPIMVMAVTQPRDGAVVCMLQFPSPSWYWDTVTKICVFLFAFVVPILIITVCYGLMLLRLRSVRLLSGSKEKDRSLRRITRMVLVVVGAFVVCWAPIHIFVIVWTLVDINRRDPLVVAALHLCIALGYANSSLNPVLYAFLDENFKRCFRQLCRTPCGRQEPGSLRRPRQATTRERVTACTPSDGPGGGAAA
Delta-type opioid receptor (Mus musculus), sequence (P32300 whole entry): as above
Kappa-type opioid receptor (Mus musculus), sequence (P33534 whole entry): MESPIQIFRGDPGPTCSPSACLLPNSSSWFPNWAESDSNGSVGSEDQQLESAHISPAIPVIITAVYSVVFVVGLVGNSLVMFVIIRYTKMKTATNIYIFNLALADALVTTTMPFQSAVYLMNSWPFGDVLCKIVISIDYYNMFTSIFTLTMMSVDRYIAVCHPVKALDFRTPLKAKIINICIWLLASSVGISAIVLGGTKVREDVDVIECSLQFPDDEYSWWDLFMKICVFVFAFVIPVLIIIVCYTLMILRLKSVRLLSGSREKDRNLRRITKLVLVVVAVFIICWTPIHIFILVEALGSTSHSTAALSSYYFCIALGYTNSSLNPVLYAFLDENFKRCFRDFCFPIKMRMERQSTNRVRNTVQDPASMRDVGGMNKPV
Mu-type opioid receptor (Mus musculus), sequence (P42866 whole entry): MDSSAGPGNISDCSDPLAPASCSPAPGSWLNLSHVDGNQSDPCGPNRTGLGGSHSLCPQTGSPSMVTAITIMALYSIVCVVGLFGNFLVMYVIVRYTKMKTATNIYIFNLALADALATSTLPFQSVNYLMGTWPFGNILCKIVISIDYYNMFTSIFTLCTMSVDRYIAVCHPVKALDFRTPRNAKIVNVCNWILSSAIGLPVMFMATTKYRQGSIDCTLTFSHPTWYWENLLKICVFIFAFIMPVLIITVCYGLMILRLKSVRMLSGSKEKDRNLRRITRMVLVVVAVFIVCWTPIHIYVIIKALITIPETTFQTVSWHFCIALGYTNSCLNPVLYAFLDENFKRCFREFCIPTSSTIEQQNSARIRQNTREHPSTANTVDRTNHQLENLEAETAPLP
Kappa-type opioid receptor, sequence (P33534 whole entry): as the sequence (P33534 whole entry) above

Consider `COc1ccc2c3c1O[C@H]1c4c(c5cc(F)cc6c5n4CCC6)C[C@@]4(O)C(C2)N(CC2CC2)CC[C@]314`, for which the ED50 in the series on Rattus norvegicus [1] was 4.73 µg/kg. Besides, in [2], the k el at 1 µM was 0.00647 s⁻¹.

As to `COc1cc2c3c(c1)c1c(n3CCC2)[C@@H]2Oc3c(O)ccc4c3[C@@]23CCN(CC2CC2)[C@H](C4)[C@]3(O)C1`, the k el at 1 µM in series [2] is 0.000552 s⁻¹. In the series with Rattus norvegicus [3], the ED50 was determined as 2 µg/kg.

Consider `Oc1ccc2c3c1O[C@H]1c4c(c5cccc6c5n4CCO6)C[C@@]4(O)[C@@H](C2)N(CC2CC2)CC[C@]314`, for which the k el at 1 µM in [2] was 0.000557 s⁻¹. Also, the ED50 in the series with Rattus norvegicus [3] is 14 µg/kg.

Take `Oc1ccc2c3c1O[C@H]1c4c(c5cc(OC(F)(F)F)cc6c5n4CCC6)C[C@@]4(O)[C@@H](C2)N(CC2CC2)CC[C@]314`: the k el at 1 µM in series [2] was 0.000152 s⁻¹. Further, the ED50 with Rattus norvegicus [3] was more than 1000 µg/kg.

As to `Oc1ccc2c3c1O[C@H]1c4[nH]c5ccccc5c4C[C@@]4(O)[C@@H](C2)N(CC2CC2)CC[C@]314` [NALTRINDOLE], in the series on Rattus norvegicus [1], the ED50 came to 104 µg/kg.

For the compound `Oc1ccc2c3c1O[C@H]1c4c(c5cc(C(F)(F)F)cc6c5n4CCC6)C[C@@]4(O)[C@@H](C2)N(CC2CC2)CC[C@]314`, the k el at 1 µM in series [2] was 0.00027 s⁻¹. Also, in the series with Rattus norvegicus [3], the ED50 is more than 1000 µg/kg.

Regarding `Oc1ccc2c3c1O[C@H]1c4c(c5c(Br)ccc6c5n4CCC6)C[C@@]4(O)[C@@H](C2)N(CC2CC2)CC[C@]314`, the k el at 1 µM in series [2] is 0.000618 s⁻¹. For the same compound, the ED50 with Rattus norvegicus [3] was found to be 94.6 µg/kg.

On to `COc1ccc2c3c1O[C@H]1c4c(c5cccc6c5n4CCC6)C[C@@]4(O)[C@@H](C2)N(CC2CC2)CC[C@]314.CS(=O)(=O)O`, for which the ED50 was determined as 2.07 µg/kg with Rattus norvegicus [1] and 6.4 µg/kg with Rattus norvegicus [4]. Also, in series [2], the k el at 1 µM was 0.00568 s⁻¹.

In the case of `COc1ccc2c3c1O[C@H]1c4c(c5c(C)ccc6c5n4CCC6)C[C@@]4(O)[C@@H](C2)N(CC2CC2)CC[C@]314`, in series [2], the k el at 1 µM was 0.00595 s⁻¹.

`COc1ccc2c3c1O[C@H]1c4c(c5cccc6c5n4CCC6(C)C)C[C@@]4(O)[C@@H](C2)N(CC2CC2)CC[C@]314`: the k el at 1 µM in [2] was 0.00103 s⁻¹. Also, the ED50 in the series with Rattus norvegicus [3] is 12.8 µg/kg.

As to `CC1(C)CCn2c3c(c4cccc1c42)C[C@@]1(O)[C@H]2Cc4ccc(O)c5c4[C@@]1(CCN2CC1CC1)[C@H]3O5`, the k el at 1 µM in series [2] was 0.00126 s⁻¹.

For the compound `Oc1ccc2c3c1O[C@H]1c4c(c5ccc(Cl)c6c5n4CCC6)C[C@@]4(O)[C@@H](C2)N(CC2CC2)CC[C@]314`, in series [2], the k el at 1 µM was 0.000483 s⁻¹. In addition, the ED50 in the series on Rattus norvegicus [3] is 13.8 µg/kg.

Consider `Oc1ccc2c3c1O[C@H]1c4c(c5ccc(Br)c6c5n4CCC6)C[C@@]4(O)[C@@H](C2)N(CC2CC2)CC[C@]314`, for which, in series [2], the k el at 1 µM is 0.000363 s⁻¹. Besides, the ED50 in the series with Rattus norvegicus [3] came to 27.4 µg/kg.

For `Oc1ccc2c3c1O[C@H]1c4c(c5c(Cl)ccc6c5n4CCC6)C[C@@]4(O)[C@@H](C2)N(CC2CC2)CC[C@]314`, the k el at 1 µM in series [2] was 0.00045 s⁻¹. Further, the ED50 with Rattus norvegicus [3] worked out at 3.5 µg/kg.

For the compound `Oc1ccc2c3c1O[C@H]1c4c(c5cc(Br)cc6c5n4CCC6)C[C@@]4(O)[C@@H](C2)N(CC2CC2)CC[C@]314`, the k el at 1 µM in series [2] is 0.000252 s⁻¹. In addition, the ED50 in the series on Rattus norvegicus [3] is 5.05 µg/kg.

For `Cc1ccc2c3c1c1c(n3CCC2)[C@@H]2Oc3c(O)ccc4c3[C@@]23CCN(CC2CC2)[C@H](C4)[C@]3(O)C1`, the k el at 1 µM in series [2] was 0.000565 s⁻¹.

With `COc1ccc2c3c1c1c(n3CCC2)[C@@H]2Oc3c(O)ccc4c3[C@@]23CCN(CC2CC2)[C@H](C4)[C@]3(O)C1`, in series [2], the k el at 1 µM was 0.000475 s⁻¹. The median effective dose (ED50) in the series with Rattus norvegicus [3] turned out to be 8.67 µg/kg.

Turning to `Oc1ccc2c3c1O[C@H]1c4c(c5cc(Cl)cc6c5n4CCC6)C[C@@]4(O)[C@@H](C2)N(CC2CC2)CC[C@]314`, in the series with Rattus norvegicus [1], the ED50 was determined as 78.4 µg/kg. Further, the k el at 1 µM in series [2] is 0.000295 s⁻¹.

On to `Oc1ccc2c3c1O[C@H]1c4c(c5c(C(F)(F)F)ccc6c5n4CCC6)C[C@@]4(O)[C@@H](C2)N(CC2CC2)CC[C@]314`, for which the k el at 1 µM in series [2] is 0.000278 s⁻¹. Further, in the series with Rattus norvegicus [3], the ED50 stood at 0.355 µg/kg.

For `COc1ccc2c3c(n4c2c1CCC4)[C@@H]1Oc2c(O)ccc4c2[C@@]12CCN(CC1CC1)[C@H](C4)[C@]2(O)C3`, the k el at 1 µM in [2] was 0.000437 s⁻¹. Besides, the 50% effective dose (ED50) in the series with Rattus norvegicus [3] was 54.2 µg/kg.

`Oc1ccc2c3c1O[C@H]1c4c(c5cccc6c5n4CCC6)C[C@@]4(O)[C@@H](C2)N(CC2CC2)CC[C@]314`: the k el at 1 µM in series [2] is 0.000415 s⁻¹. Moreover, the ED50 with Rattus norvegicus [3] stood at 0.2 µg/kg.

Consider `COc1ccc2c3c1O[C@H]1c4c(c5c(OC)ccc6c5n4CCC6)C[C@@]4(O)[C@@H](C2)N(CC2CC2)CC[C@]314`, for which the k el at 1 µM in series [2] is 0.00333 s⁻¹.

Regarding `COc1ccc2c3c1O[C@H]1c4c(c5cccc6c5n4CCO6)C[C@@]4(O)[C@@H](C2)N(CC2CC2)CC[C@]314`, in [2], the k el at 1 µM is 0.00105 s⁻¹.

In the case of `Oc1ccc2c3c1O[C@H]1c4c(c5cc(F)cc6c5n4CCC6)C[C@@]4(O)[C@@H](C2)N(CC2CC2)CC[C@]314`, the Ratio in [5] was 1.03; in series [6], 0.98; in [10], 7.87. For the same compound, the Selectivity ratio in the series filed under Mus musculus [7] and in the series listed under Mus musculus [13] was more than 100 throughout. In addition, the outcome in series [8], in [12] and in series [15] was inactive. Further, the k el at 1 µM in series [2] is 0.00029 s⁻¹. In addition, the Activity result in the series with Rattus norvegicus [9] was “Dose-dependent effect”. Moreover, the Kb is 0.331 µM in [11] and 0.00145 µM in series [14] (read-out: pA2 (converted)). For the same compound, the IC50 in series [14] came to 8.8 µM. Moreover, the ED50 with Rattus norvegicus [3] was determined as 1.7 µg/kg.

For the compound `COc1ccc2c3c1O[C@H]1c4c(c5c(C(F)(F)F)ccc6c5n4CCC6)C[C@@]4(O)[C@@H](C2)N(CC2CC2)CC[C@]314`, the k el at 1 µM in [2] is 0.00228 s⁻¹.

Consider `COc1ccc2c3c1O[C@H]1c4c(c5cc(Br)cc6c5n4CCC6)C[C@@]4(O)[C@@H](C2)N(CC2CC2)CC[C@]314`, for which, in [2], the k el at 1 µM was 0.0044 s⁻¹.

The values are drawn from ChEMBL document CHEMBL1139426, “Design and synthesis of a metabolically stable and potent antitussive agent, a novel delta opioid receptor antagonist, TRK-851” (Bioorg Med Chem, 2008).
